The source of these data is US5439915A, “Pyrido[3,4-B]indole carboxamide derivatives as serotonergic agents” (American Home Products Corporation, priority 1994, dated 1995).

One may read the IC50 as the concentration at which inhibition is half-maximal.

The target of the assay is T1, 5-HT1A serotonin receptor (Rattus norvegicus, UniProt P19327).
T1 construct: following the procedure of Hall et al., J. Neurochem; 44 1685 (1985); from tissue
T1 sequence (P19327 1-422): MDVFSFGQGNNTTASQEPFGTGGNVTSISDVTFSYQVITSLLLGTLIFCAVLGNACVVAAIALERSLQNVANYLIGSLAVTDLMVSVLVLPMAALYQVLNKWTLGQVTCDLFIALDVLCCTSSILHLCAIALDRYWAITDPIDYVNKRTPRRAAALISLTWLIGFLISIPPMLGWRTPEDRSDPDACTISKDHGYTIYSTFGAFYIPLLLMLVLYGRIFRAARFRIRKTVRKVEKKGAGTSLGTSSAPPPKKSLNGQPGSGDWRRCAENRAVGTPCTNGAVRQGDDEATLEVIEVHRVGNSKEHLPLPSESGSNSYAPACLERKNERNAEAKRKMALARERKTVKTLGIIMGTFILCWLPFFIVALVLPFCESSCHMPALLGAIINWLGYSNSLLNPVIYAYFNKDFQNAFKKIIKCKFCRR
Nature of the assay: displacement of [^3 H] 8-OHDPAT (dipropylaminotetralin) from the 5-HT1A serotonin receptor (Hall et al.). The note with it: read-out: 5-HT1A Binding (IC50). The method, then: High affinity for the serotonin 5-HT1A receptor for the compounds of this invention was established by testing them in accordance with the standard pharmacological test procedure in which the compound's ability to displace [^3 H] 8-OHDPAT (dipropylaminotetralin) from the 5-HT1A serotonin receptor was determined following the procedure of Hall et al., J. Neurochem. 44 1685 (1985).
In the case of `C[C@H](CN1CCc2c([nH]c3ccccc23)C1)N(C(=O)C1CCCCC1)c1ccccn1` [Example 1], the IC50 is 34.9 nM.
Regarding `C[C@H](CN1CCc2c([nH]c3ccccc23)C1)N(C(=O)C12CC3CC(CC(C3)C1)C2)c1ccccn1` [Example 2], the IC50 turned out to be 32.5 nM.
`C[C@H](CN1CCc2c(n(C)c3ccccc23)C1)N(C(=O)C1CCCCC1)c1ccccn1` [Example 3]: the IC50 came out at 78.1 nM.
